From US4602011A, “Antimicrobial compositions and methods of using same” (Chapman Chemical Company, priority 1982, dated 1986)

Key:
[1] = tested on: rice spot (Helminthosporium orazae and Cerocospora orazae); assay type: in vivo; conditions: 33 ppm active; 0 no pathogen control to 10 complete
[2] = tested on: fungal stain and mold growth; test: fungal stain and mold growth on dip-treated fresh-cut pine boards; conditions: 28 days
Protocol: In the examples that follow, the effectiveness of the various formulations was determined by treating freshly cut pine boards by dip immersion for 10 seconds in the formulation to be tested. The boards, along with an untreated control, were placed in a chamber for the period of time indicated and maintained at a temperature of about 80° F. and a humidity of about 70%.
At the end of the test period, the boards were removed from the chamber and rated for effectiveness in terms of percentage of total surface area covered by fungal stain and mold growth. Accordingly, the lower the percentage, the higher the effectiveness of the test formulation. […]
As further evidence of the effectiveness of antimicrobials prepared in accordance with this invention, a number of tests were conducted utilizing DDBSA as the disubstituted aryl compound of this invention as a solution with the below-listed microbicidal agents. […] Fresh-cut green pine test boards were dip-treated and evaluated for stain and mold after 30 days in the aforementioned constant atmosphere test chamber:
These compositions were diluted 1:200 with a water carrier for use, and freshly cut pine boards were dip immersed in the formulation to be tested. […] After the test period, the specimen boards were evaluated in terms of percentage of total surface area covered by fungal stain and mold growth.

Ceratocystis pilifera = test: sugar cane pineapple disease emergence test; assay type: in vivo; conditions: 56 days
Protocol: The following composition was prepared and evaluated for control of pineapple disease of sugar cane (Ceratocystis pilifera):
Sugar cane seed was treated with this solution as diluted with a water carrier. Seed also was treated with benomyl, thiophanate methyl, Panoctine (9-aza-1,17-diquanidinoheptadecane triacetate), hot water and cold water. The results are tabulated below:
(2) Prior to planting, the seed was inoculated with the causal disease
organism, Ceratocystis pilifera. Emergence data was collected 56 days

rice seedling emergence = assay type: in vivo
P. aeruginosa = conditions: reference tests and manufacturer's literature; cited from earlier work
fungi = test: antifungal efficacy of formulated phenolics; conditions: formulated per invention vs conventional
Source text: The antifungal efficacy of these phenolics is improved by formulation in accordance with this invention.

[3] = tested on: Candida albicans (ATCC 10259); test: minimum fungicidal concentration; assay type: cell-based; conditions: ppm of active ingredient; "1" means 1 or fewer
[4] = tested on: Lenzites trabea (ATCC 11539); test: minimum fungicidal concentration; assay type: cell-based; conditions: ppm of active ingredient; "1" means 1 or fewer
human skin = test: skin irritation on human subjects; assay type: in vivo; conditions: undiluted on hands
Protocol: These compositions were tested for skin irritation by rubbing 2 ml of each onto the hands of six test subjects. After 60 seconds, Compositions A, B and C were rinsed off the hands with water. […] The results with Compositions D and E were observably different.
The two compositions were tested for skin irritation by placing two drops of one composition on the skin at the inside of one elbow of five test subjects and two drops of the other composition on the same spot on the other elbow of each subject. In all cases, the composition was smeared over about a one-half square inch of skin and the subjects' reactions were noted over a 20-minute test period.
The compositions were tested on three subjects for skin irritation by spreading two drops of each composition over a one square inch area of skin just below one eye of each test subject and the other composition on the same spot beneath the other eye.

[5] = tested on: Aspergillis terreus (ATCC 10609); test: minimum fungicidal concentration; assay type: cell-based; conditions: ppm of active ingredient; "1" means 1 or fewer
[6] = tested on: Penicillium brevi compactum (ATCC 16024); conditions: ppm of active ingredient; "1" means 1 or fewer
[7] = tested on: Trichoderma viride (ATCC 8678); conditions: ppm of active ingredient; "1" means 1 or fewer
[8] = tested on: bean rust (Uromyces phaseoli typica); test: foliar spray on beans; assay type: in vivo; conditions: 33 ppm active; 0 no pathogen control to 10 complete
Source text: (§1) The composition of Example 23 was screened for fungal pathogen response as a foliar spray on beans and rice. The rating scale is from 0 (no pathogen control) to 10 (complete pathogen control). The concentration of active ingredient (in a water carrier) of all compositions tested is 33 parts per million (ppm). The active ingredient in the composition of Example […] is expressed in terms of Cu-8-Q and the chemical as listed below for four comparative products. The comparative products tested were Karathane (2,4-dimitro-6-(2-octyl phenyl crotonate), Vitavax (5,6-dihydro-2-methyl-1,4-oxathiin-3-carboxanilide), Daconil (tetrachloroisophthalonitrile) and Maneb (manganese ethylenebisdithiocarbamate). The plants and diseases tested were bean mildew (Erysiphe polygoni), bean rust (Uromyces phaseoli typica) and rice spot (Helminthosporium orazae and Cerocospora orazae).
(§2) The rating scale is from 0 (no pathogen control) to 10 (complete pathegon control). The concentration of active ingredient (in a water carrier) of all compositions tested is 33 parts per million (ppm). The active ingredient in the composition of Example 4 is expressed in terms of Cu-8-Q and the chemical as listed below for four comparative products. […]

[9] = tested on: bean mildew (Erysiphe polygoni); test: foliar spray on beans; assay type: in vivo; conditions: 33 ppm active; 0 no pathogen control to 10 complete
Source text: as §1, §2

Athlete's Foot = Athlete's Foot treatment; assay type: in vivo, human; conditions: one case; Toluaftate 1% twice daily for eight days
Source text: The second formulation in the preceding Example was applied once daily by eight test subjects to the skin between the toes for control of "Athlete's Foot". […] Two of the cases had previously resisted control with several over-the-counter brand name antifungals. One of the two, a virulent infection, had reached the bleeding stage from deeply cracked skin and a bacterial infection started, despite twice daily application for eight days of a 1% solution of Toluaftate which has gained broad recognition for effective control of "Athlete's Foot".

With “manganese ethylenebisdithiocarbamate [Maneb]” the “Rice Spot rating” value [1] was 8.
With `OB(O)O` [Orthoboric acid] the “% Stain and Mold” value ([2]; 0.25% in water) was 86% and the “% Stain and Mold” value ([2]; 0.50% in water) was 62%.
With `CCCCNC(=O)n1c(NC(=O)OC)nc2ccccc21` [Benomyl, benomyl] the “% Emergency, Inoculated” value (Ceratocystis pilifera; 150 ppm active) was 50%.
In the case of `CC1=C(C(=O)Nc2ccccc2)SCCO1` [PRODUCT D, 5,6dihydro-2-methyl-1,4-oxathiim-3-carboxanilide], the “Improvement over Control” value (rice seedling emergence; 4 ounces/cwt, thirteen test plots) is reported as 12.3% and the “Performance Consistency” value (rice seedling emergence; in vivo) is reported as 71.3.
For `Oc1ccc(Cl)cc1-c1ccccc1` [4-chloro-2-phenyl phenol], the phenol coefficient (P. aeruginosa) is given as “less than 10”.
With tetrachlorophenol the antifungal efficacy improvement (fungi) was “significantly higher than would be expected”.
In the case of `CCCCCCCCCCCCc1ccc(S(=O)(=O)O)cc1` [DDBSA, dodecyl benzene sulfonic acid], the “Minimum Fungicidal Concentration” value [3] is reported as 1,000 ppm, the “Minimum Fungicidal Concentration” value [4] is reported as 100 ppm and the skin sensation (human skin) is reported as “almost immediate warm and uncomfortable sensation”. For the same molecule, the “Minimum Fungicidal Concentration” value [5] was 100 ppm, the “Minimum Fungicidal Concentration” value [6] was 100 ppm and the “Minimum Fungicidal Concentration” value [7] was 100 ppm.
For `CC1=C(C(=O)Nc2ccccc2)SCCO1` [Vitavax, 5,6-dihydro-2-methyl-1,4-oxathiin-3-carboxanilide], the “Bean Rust rating” value [8] was 9.
With `Oc1ccccc1-c1ccccc1` [Orthophenyl phenol] the antifungal efficacy improvement (fungi) was “significantly higher than would be expected”.
With `CC=CC(=O)Oc1c(C(C)CCCCCC)cc([N+](=O)[O-])cc1[N+](=O)[O-]` (stereo not drawn) [Karathane, 2,4-dimitro-6-(2-octylphenyl crotonate] the “Bean Mildew rating” value [9] was 10.
For `N#Cc1c(Cl)c(Cl)c(Cl)c(C#N)c1Cl` [Daconil, tetrachloroisophthalonitrile], the “Rice Spot rating” value [1] was 10.
With `COC(=O)NC(=S)Nc1ccccc1NC(=S)NC(=O)OC` [Thiophanate methyl, thiophanate methyl] the “% Emergency, Inoculated” value (Ceratocystis pilifera; 50 ppm active) was 55%, the “% Emergency, Inoculated” value (Ceratocystis pilifera; 150 ppm active) was 51% and the “% Emergency, Inoculated” value (Ceratocystis pilifera; 300 ppm active) was 49%.
In the case of `Oc1c(Cl)c(Cl)c(Cl)c(Cl)c1Cl` [pentachlorophenol], the antifungal efficacy improvement (fungi) is reported as “significantly higher than would be expected”.
In the case of `Oc1cc(Cl)cc(Cl)c1Cl` [2,3,5-trichlorophenol], the antifungal efficacy improvement (fungi) is reported as “significantly higher than would be expected”.
In the case of `Cc1cccc(N(C)C(=S)Oc2ccc3ccccc3c2)c1` [Toluaftate], the “control of resistant Athlete's Foot and bacterial infection” value (Athlete's Foot) is reported as “failed to control”.
With `N=C(N)NCCCCCCCCNCCCCCCCCNC(=N)N` [Panoctine, 9-aza-1,17-diquanidinoheptadecane triacetate] the “% Emergency, Inoculated” value (Ceratocystis pilifera; 50 ppm active) was 48%, the “% Emergency, Inoculated” value (Ceratocystis pilifera; 100 ppm active) was 48% and the “% Emergency, Inoculated” value (Ceratocystis pilifera; 200 ppm active) was 53%.
